Results taken from patent publication US9062056B2, “Aza-benzimidazolone Chymase inhibitors” (Boehringer Ingelheim International GmbH, priority 2008, dated 2015).

These compounds were tested against T1, Chymase (Homo sapiens, UniProt P23946) (assay: In vitro assay for inhibition of Chymase (rhodamine 110 peptide substrate, fluorescence)). Settings: 500 pM chymase, 100 nM substrate, 100 μM TCEP, 1% DMSO, 28° C., 1 hour.
T1 sequence (P23946 22-247): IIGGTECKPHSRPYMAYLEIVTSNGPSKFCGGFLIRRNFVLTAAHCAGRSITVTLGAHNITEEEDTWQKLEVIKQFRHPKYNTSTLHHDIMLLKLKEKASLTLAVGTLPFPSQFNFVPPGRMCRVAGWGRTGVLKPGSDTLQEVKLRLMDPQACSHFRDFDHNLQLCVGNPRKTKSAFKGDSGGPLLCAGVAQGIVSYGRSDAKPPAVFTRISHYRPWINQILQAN
Assay type: biochemical
Method: IN VITRO ASSAY FOR INHIBITION OF CHYMASE
Chymase assays were performed in a total volume of 15 μL in Corning black opaque 384-well microtiter plates with a non-binding surface (Corning, N.Y.). The assay buffer was comprised of 20 mM Tris HCl pH 8.0, 50 mM NaCl, 0.01% CHAPS. The test compounds were serially diluted 3-fold with neat DMSO in a 96-well polypropylene plate from a 10 mM DMSO stock to give the 10 point dose response curve. 3 μL of the resulting DMSO solution were transferred to a 384-well polypropylene plate in duplicate, and 37 μL of assay buffer was added. Chymase was added to the assay plate in 3 uL of assay buffer followed by 2 uL of the appropriate compound dilution using a PlateMate Plus (Matrix Technologies Corp., Hudson, N.H.). The reaction was initiated by the addition of 10 uL rhodamine 110, bis-(succinoyl-L-alanyl-L-alanyl-L-prolyl-L-phenylalanylamide) (American Peptides, Sunnyvale, Calif.) in assay buffer containing 150 μM tris(2-carboxyethyl)phosphine (TCEP, Pierce Chemical, Rockford, Ill.) using a Multidrop (Thermo Electron Corp., Waltham, Mass.). Final assay concentrations were 500 pM chymase, 100 nM substrate, 100 μM TCEP, and 1% DMSO. The plates were incubated at 28° C. and 80% humidity for 1 hour, at which time the fluorescence was read on a Viewlux 1430 Microplate Imager (Perkin Elmer Life Sciences, Boston, Mass.) with 485 nm excitation, 530 nm emission, and a fluorescein dichroic mirror. The percentage of control values were calculated relative to assay blanks containing complete reaction minus chymase and a 100% control containing assay buffer with 1% DMSO in place of compound. IC50 values were obtained by fitting the data using XLFit4 (IDBS Software).

Structure (SMILES) | IC50 [nM]
CCC[C@@H](CC(=O)O)n1c(=O)n(Cc2nsc3cc(C)cc(C)c23)c2ccc(C)nc21 [(S)-3-[1-(4,6-Dimethyl-1,2-benzisothiazol-3-ylmethyl)-5-methyl-2-oxo-1,2-dihydro-imidazo[4,5-b]pyridin-3-yl]-hexanoic acid] | 3.4
Cc1ccc2c(n1)n([C@H](CC(=O)O)c1cccnc1)c(=O)n2Cc1cn(C)c2cccc(C)c12 [(R)-3-[1-(1,4-Dimethyl-1H-indol-3-ylmethyl)-5-methyl-2-oxo-1,2-dihydro-imidazo[4,5-b]pyridin-3-yl]-3-pyridin-3-yl-propionic acid] | 10.7
CCCC(CC(=O)O)n1c(=O)n(Cc2cn(C)c3cc(C)cc(C)c23)c2ccc(C#N)nc21 (centres unmarked) [3-[5-Cyano-2-oxo-1-(1,4,6-trimethyl-1H-indol-3-ylmethyl)-1,2-dihydro-imidazo[4,5-b]pyridin-3-yl]-hexanoic acid] | 1.06
CCCC(CC(=O)O)n1c(=O)n(Cc2cn(C)c3cccc(C)c23)c2ccc(C#N)nc21 (centres unmarked) [3-[5-Cyano-1-(1,4-dimethyl-1H-indol-3-ylmethyl)-2-oxo-1,2-dihydro-imidazo[4,5-b]pyridin-3-yl]-hexanoic acid] | 2.2
CCC[C@@H](CC(=O)NS(=O)(=O)C(C)(C)C)n1c(=O)n(Cc2cn(C)c3cccc(C)c23)c2cccnc21 [2-Methyl-propane-2-sulfonic acid {(S)-3-[1-(1,4-dimethyl-1H-indol-3-ylmethyl)-2-oxo-1,2-dihydro-imidazo[4,5-b]pyridin-3-yl]-hexanoyl}-amide] | 1
CCC[C@@H](CC(=O)NS(=O)(=O)CC)n1c(=O)n(Cc2cn(C)c3cccc(C)c23)c2cccnc21 [Ethanesulfonic acid {(S)-3-[1-(1,4-dimethyl-1H-indol-3-ylmethyl)-2-oxo-1,2-dihydro-imidazo[4,5-b]pyridin-3-yl]-hexanoyl}-amide] | 7.48
Cc1cc(C)c2c(Cn3c(=O)n([C@H](CC(=O)O)c4cccc(Cl)c4)c4nc(C)ccc43)nsc2c1 [(R)-3-(3-Chloro-phenyl)-3-[1-(4,6-dimethyl-1,2-benzisothiazol-3-ylmethyl)-5-methyl-2-oxo-1,2-dihydro-imidazo[4,5-b]pyridin-3-yl]-propionic acid] | 6.26
CCC[C@@H](CC(=O)O)n1c(=O)n(Cc2cn(C)c3cccc(C)c23)c2cnccc21 [(S)-3-[3-(1,4-Dimethyl-1H-indol-3-ylmethyl)-2-oxo-2,3-dihydro-imidazo[4,5-c]pyridin-1-yl]-hexanoic acid] | 18.9
Cc1cccc2c1c(Cn1c(=O)n([C@H](CC(=O)O)c3ccccc3)c3nc(C#N)ccc31)cn2C [(R)-3-[5-Cyano-1-(1,4-dimethyl-1H-indol-3-ylmethyl)-2-oxo-1,2-dihydro-imidazo[4,5-b]pyridin-3-yl]-3-phenyl-propionic acid] | 1.5
Cc1cc2c(cn1)n(Cc1cn(C)c3cccc(C)c13)c(=O)n2[C@H](CC(=O)O)c1ccccc1 [(R)-3-[3-(1,4-Dimethyl-1H-indol-3-ylmethyl)-6-methyl-2-oxo-2,3-dihydro-imidazo[4,5-c]pyridin-1-yl]-3-phenyl-propionic acid] | 2.62
Cc1cccc2c1c(Cn1c(=O)n([C@H](CC(=O)O)c3ccccc3)c3ccncc31)cn2C [(R)-3-[3-(1,4-Dimethyl-1H-indol-3-ylmethyl)-2-oxo-2,3-dihydro-imidazo[4,5-c]pyridin-1-yl]-3-phenyl-propionic acid] | 3.91
Cc1cc(C)c2c(Cn3c(=O)n([C@H](CC(=O)O)c4ccccc4)c4ncccc43)nsc2c1 [(R)-3-[1-(4,6-Dimethyl-benzo[d]isothiazol-3-ylmethyl)-2-oxo-1,2-dihydro-imidazo[4,5-b]pyridin-3-yl]-3-phenyl-propionic acid] | 4.23
CCC[C@@H](CC(=O)O)n1c(=O)n(Cc2cn(C)c3cccc(C)c23)c2ncccc21 [(S)-3-[3-(1,4-Dimethyl-1H-indol-3-ylmethyl)-2-oxo-2,3-dihydro-imidazo[4,5-b]pyridin-1-yl]-hexanoic acid] | 8.86
CCCC(CC(=O)O)n1c(=O)n(Cc2cn(C)c3cc(C)cc(C)c23)c2ccc(C(N)=O)nc21 (centres unmarked) [3-[5-Carbamoyl-2-oxo-1-(1,4,6-trimethyl-1H-indol-3-ylmethyl)-1,2-dihydro-imidazo[4,5-b]pyridin-3-yl]-hexanoic acid] | 1.93
CCC[C@@H](CC(=O)NS(=O)(=O)c1cn(C)cn1)n1c(=O)n(Cc2cn(C)c3cccc(C)c23)c2cccnc21 [1-Methyl-1H-imidazole-4-sulfonic acid {(S)-3-[1-(1,4-dimethyl-1H-indol-3-ylmethyl)-2-oxo-1,2-dihydro-imidazo[4,5-b]pyridin-3-yl]-hexanoyl}-amide] | 6.71
CCC[C@@H](CC(=O)O)n1c(=O)n(Cc2cn(C)c3cccc(C)c23)c2cc(C)cnc21 [(S)-3-[1-(1,4-Dimethyl-1H-indol-3-ylmethyl)-6-methyl-2-oxo-1,2-dihydro-imidazo[4,5-b]pyridin-3-yl]-hexanoic acid] | 3.46

The next compounds have a lower IC50 than those just listed; values first:

IC50 [nM] | Structure (SMILES)
0.2 | Cc1cc(C)c2c(Cn3c(=O)n([C@H](CC(=O)O)c4ccc(Cl)cc4)c4nc(C#N)ccc43)cn(C)c2c1 [(R)-3-(4-Chloro-phenyl)-3-[5-cyano-2-oxo-1-(1,4,6-trimethyl-1H-indol-3-ylmethyl)-1,2-dihydro-imidazo[4,5-b]pyridin-3-yl]-propionic acid]
0.245 | Cc1cccc2c1c(Cn1c(=O)n([C@H](CC(=O)O)c3ccc(F)cc3)c3nc(C#N)ccc31)cn2C [(R)-3-[5-Cyano-1-(1,4-dimethyl-1H-indol-3-ylmethyl)-2-oxo-1,2-dihydro-imidazo[4,5-b]pyridin-3-yl]-3-(4-fluoro-phenyl)-propionic acid]
0.23 | Cc1cc(C)c2c(Cn3c(=O)n([C@H](CC(=O)O)c4ccc(F)cc4)c4nc(C#N)ccc43)cn(C)c2c1 [(R)-3-[5-Cyano-2-oxo-1-(1,4,6-trimethyl-1H-indol-3-ylmethyl)-1,2-dihydro-imidazo[4,5-b]pyridin-3-yl]-3-(4-fluoro-phenyl)-propionic acid]
0.605 | COc1ccc2c(n1)n([C@H](CC(=O)O)c1ccccc1)c(=O)n2Cc1cn(C)c2cc(C)cc(C)c12 [(R)-3-[5-Methoxy-2-oxo-1-(1,4,6-trimethyl-1H-indol-3-ylmethyl)-1,2-dihydro-imidazo[4,5-b]pyridin-3-yl]-3-phenyl-propionic acid]
0.61 | Cc1cc(C)c2c(Cn3c(=O)n([C@H](CC(=O)O)c4ccccc4)c4ncccc43)cn(C)c2c1 [(R)-3-[2-Oxo-1-(1,4,6-trimethyl-1H-indol-3-ylmethyl)-1,2-dihydro-imidazo[4,5-b]pyridin-3-yl]-3-phenyl-propionic acid]
0.624 | Cc1cc(C)c2c(Cn3c(=O)n([C@H](CC(=O)O)c4ccc(Cl)cc4)c4nc(C)ccc43)nsc2c1 [(R)-3-(4-Chloro-phenyl)-3-[1-(4,6-dimethyl-1,2-benzisothiazol-3-ylmethyl)-5-methyl-2-oxo-1,2-dihydro-imidazo[4,5-b]pyridin-3-yl]-propionic acid]
0.395 | Cc1cc(C)c2c(Cn3c(=O)n([C@H](CC(=O)O)c4ccc(F)cc4)c4nc(C(N)=O)ccc43)cn(C)c2c1 [(R)-3-[5-Carbamoyl-2-oxo-1-(1,4,6-trimethyl-1H-indol-3-ylmethyl)-1,2-dihydro-imidazo[4,5-b]pyridin-3-yl]-3-(4-fluoro-phenyl)-propionic acid]
